Experiments:
[1] = system: Ten CoV 3CL^pro's (FIPV-, PEDV-, NL63-, HKU1-, OC43-, SARS-, HKU4-, HKU5-, HKU9-, IBV-3CL^pro); format: biochemical, coronaviruses (α-, β-, γ-CoV)
[2] = target: HKU1-3CL^pro (Human coronavirus HKU1 (isolate N1) (HCoV-HKU1), UniProt P0C6X2); assay: biochemical
[3] = target: HKU5-3CL^pro (Bat coronavirus HKU5 (BtCoV) (BtCoV/HKU5/2004), UniProt P0C6W4); format: biochemical
[4] = target: SARS-3CL^pro (Severe acute respiratory syndrome coronavirus (SARS-CoV), UniProt P0C6X7); format: biochemical
[5] = target: HKU4-3CL^pro (Bat coronavirus HKU4 (BtCoV) (BtCoV/HKU4/2004), UniProt P0C6W3); format: biochemical
Chain of HKU4-3CL^pro (P0C6W3 3292-3597 limits assumed): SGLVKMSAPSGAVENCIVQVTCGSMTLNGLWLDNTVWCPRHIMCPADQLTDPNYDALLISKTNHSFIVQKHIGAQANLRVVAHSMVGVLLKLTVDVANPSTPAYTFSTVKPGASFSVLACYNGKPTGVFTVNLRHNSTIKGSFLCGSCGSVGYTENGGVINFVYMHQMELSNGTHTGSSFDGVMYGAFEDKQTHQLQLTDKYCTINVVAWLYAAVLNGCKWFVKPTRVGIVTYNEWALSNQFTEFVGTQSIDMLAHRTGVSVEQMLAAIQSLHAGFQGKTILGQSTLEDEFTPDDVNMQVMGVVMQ

Chain of HKU1-3CL^pro (P0C6X2 3335-3637 limits assumed): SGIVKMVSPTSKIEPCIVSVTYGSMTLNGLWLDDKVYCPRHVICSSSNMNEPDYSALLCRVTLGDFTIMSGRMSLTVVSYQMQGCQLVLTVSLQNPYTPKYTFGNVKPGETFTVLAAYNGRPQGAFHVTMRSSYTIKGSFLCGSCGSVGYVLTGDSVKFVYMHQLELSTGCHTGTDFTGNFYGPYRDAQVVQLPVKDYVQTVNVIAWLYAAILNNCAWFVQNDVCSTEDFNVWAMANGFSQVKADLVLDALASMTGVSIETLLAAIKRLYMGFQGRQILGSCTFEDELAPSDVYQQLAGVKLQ
Chain of HKU5-3CL^pro (P0C6W4 3339-3644 limits assumed): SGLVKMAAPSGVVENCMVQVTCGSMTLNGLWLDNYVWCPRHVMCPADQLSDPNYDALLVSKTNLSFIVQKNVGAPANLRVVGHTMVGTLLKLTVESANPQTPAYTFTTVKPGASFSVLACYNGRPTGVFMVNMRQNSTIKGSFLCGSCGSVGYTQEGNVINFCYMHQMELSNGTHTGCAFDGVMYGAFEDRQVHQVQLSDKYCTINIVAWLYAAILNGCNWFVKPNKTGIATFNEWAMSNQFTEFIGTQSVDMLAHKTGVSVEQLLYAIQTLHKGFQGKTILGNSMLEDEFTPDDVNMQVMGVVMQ

Structure (SMILES) | inhibition of any 3CL^pro [1] | Gini Coefficient [1] | further results
CC(C)C(=O)Nc1ccc(N(C(=O)Cn2nnc3ccccc32)C(C(=O)NCc2ccccc2)c2cccc(Cl)c2)cc1 (centres unmarked) [Compound 11, N-(4-(2-(1H-benzo[d][1,2,3]triazol-1-yl)-N-(2-(benzylamino)-1-(3-chlorophenyl)-2-oxoethyl)acetamido)phenyl)isobutyramide] | ≤ 50% |  | 
CC(C)C(=O)Nc1ccc(N(C(=O)Cn2nnc3ccccc32)C(C(=O)NCc2ccccc2)c2ccc(Cl)cc2)cc1 (centres unmarked) [Compound 12, N-(4-(2-(1H-benzo[d][1,2,3]triazol-1-yl)-N-(2-(benzylamino)-1-(4-chlorophenyl)-2-oxoethyl)acetamido)phenyl)isobutyramide] |  | 0.37 | 
COc1ccc(C(C(=O)NCc2ccccc2)N(C(=O)Cn2nnc3ccccc32)c2ccc(NC(=O)C(C)C)cc2)cc1 (centres unmarked) [Compound 13, N-(4-(2-(1H-benzo[d][1,2,3]triazol-1-yl)-N-(2-(benzylamino)-1-(4-methoxyphenyl)-2-oxoethyl)acetamido)phenyl)isobutyramide] |  | 0.43 | IC50 [2]: 2500 ± 400 nM; IC50 [3]: 1300 ± 200 nM; Score (performance metric score) [1]: 6.4
COc1cccc(C(C(=O)NCc2ccccc2)N(C(=O)Cn2nnc3ccccc32)c2ccc(NC(=O)C(C)C)cc2)c1 (centres unmarked) [Compound 14, N-(4-(2-(1H-benzo[d][1,2,3]triazol-1-yl)-N-(2-(benzylamino)-1-(3-methoxyphenyl)-2-oxoethyl)acetamido)phenyl)isobutyramide] |  | 0.33 | IC50 [2]: 1800 ± 300 nM; IC50 HKU1 [2]: low micromolar; IC50 [4]: 3500 ± 400 nM; IC50 SARS [4]: low micromolar; IC50 [5]: 2400 ± 200 nM; IC50 HKU4 [5]: low micromolar; IC50 [3]: 2200 ± 300 nM; IC50 HKU5 [3]: low micromolar; Score (performance metric score) [1]: 6.6
CC(C)C(=O)Nc1ccc(N(C(=O)Cn2nnc3ccccc32)C(C(=O)NCc2ccccc2)c2cccnc2)cc1 (centres unmarked) [Compound 15, N-(4-(2-(1H-benzo[d][1,2,3]triazol-1-yl)-N-(2-(benzylamino)-2-oxo-1-(pyridin-3-yl)ethyl)acetamido)phenyl)isobutyramide] |  | 0.48 | IC50 [4]: 10900 ± 1900 nM; IC50 [5]: 4000 ± 400 nM; IC50 [3]: 9600 ± 1200 nM; Score (performance metric score) [1]: 9.7
CC(C)C(=O)Nc1ccc(N(C(=O)Cn2nnc3ccccc32)C(C(=O)NCc2ccccc2)c2ccncc2)cc1 (centres unmarked) [Compound 16, N-(4-(2-(1H-benzo[d][1,2,3]triazol-1-yl)-N-(2-(benzylamino)-2-oxo-1-(pyridin-4-yl)ethyl)acetamido)phenyl)isobutyramide] | ≤ 50% | 0.52 | 
CC(C)C(=O)Nc1ccc(N(C(=O)Cc2coc3ccccc23)C(C(=O)NCc2ccccc2)c2cccc(F)c2)cc1 (centres unmarked) [Compound 20, N-(4-(2-(benzofuran-3-yl)-N-(2-(benzylamino)-1-(3-fluorophenyl)-2-oxoethyl)acetamido)phenyl)isobutyramide] | ≤ 50% | 0.39 | 
CC(C)(C)NC(=O)C(c1ccsc1)N(C(=O)Cc1csc2ccccc12)c1ccc(NC(=O)C2CC2)cc1 (centres unmarked) [Compound 24, N-(4-(2-(benzo[b]thiophen-3-yl)-N-(2-(tert-butylamino)-2-oxo-1-(thiophen-3-yl)ethyl)acetamido)phenyl)cyclopropanecarboxamide] | ≤ 50% | 0.40 | 
CC(C)(C)NC(=O)C(c1ccsc1)N(C(=O)Cc1coc2ccccc12)c1ccc(NC(=O)C2CC2)cc1 (centres unmarked) [Compound 25, N-(4-(2-(benzofuran-3-yl)-N-(2-(tert-butylamino)-2-oxo-1-(thiophen-3-yl)ethyl)acetamido)phenyl)cyclopropanecarboxamide] | ≤ 50% | 0.39 | 
CC(C)(C)NC(=O)C(c1ccsc1)N(C(=O)Cc1c[nH]c2ccccc12)c1ccc(NC(=O)C2CC2)cc1 (centres unmarked) [Compound 26, N-(4-(N-(2-(tert-butylamino)-2-oxo-1-(thiophen-3-yl)ethyl)-2-(1H-indol-3-yl)acetamido)phenyl)cyclopropanecarboxamide] | ≤ 50% | 0.46 | 
CC(C)C(=O)Nc1ccc(N(C(=O)Cn2nnc3ccccc32)C(C(=O)NCc2ccccc2)c2ccc(N(C)C)cc2)cc1 (centres unmarked) [Compound 52, N-(4-(2-(1H-benzo[d][1,2,3]triazol-1-yl)-N-(2-(benzylamino)-1-(4-(dimethylamino)phenyl)-2-oxoethyl)acetamido)phenyl)isobutyramide] | ≤ 50% | 0.42 | 
CC(C)C(=O)Nc1ccc(N(C(=O)Cn2nnc3ccccc32)C(C(=O)NCc2ccccc2)c2ccc(OCCCN(C)C)cc2)cc1 (centres unmarked) [Compound 54, N-(4-(2-(1H-benzo[d][1,2,3]triazol-1-yl)-N-(2-(benzylamino)-1-(4-(3-(dimethylamino)propoxy)phenyl)-2-oxoethyl)acetamido)phenyl)isobutyramide] |  | 0.59 | IC50 [2]: 20000 ± 2900 nM; IC50 [4]: 27300 ± 4600 nM; Score (performance metric score) [1]: 19.8
CC(C)C(=O)Nc1ccc(N(C(=O)Cn2nnc3ccccc32)C(C(=O)NCc2ccccc2)c2ccc(Cl)c(F)c2)cc1 (centres unmarked) [Compound 55, N-(4-(2-(1H-benzo[d][1,2,3]triazol-1-yl)-N-(2-(benzylamino)-1-(4-chloro-3-fluorophenyl)-2-oxoethyl)acetamido)phenyl)isobutyramide] |  | 0.50 | IC50 [4]: 800 ± 100 nM; Score (performance metric score) [1]: 9.8
CC(C)C(=O)Nc1ccc(N(C(=O)C2CCN(C(=O)OC(C)(C)C)CC2)C(C(=O)NCc2ccccc2)c2cccc(F)c2)cc1 (centres unmarked) [Compound 56, tert-butyl 4-((2-(benzylamino)-1-(3-fluorophenyl)-2-oxoethyl)(4-isobutyramidophenyl)carbamoyl) piperidine-1-carboxylate] |  | 0.34 | 
Cc1cccc2c(CC(=O)N(c3ccc(NC(=O)C(C)C)cc3)C(C(=O)NCc3ccccc3)c3cccc(F)c3)c[nH]c12 (centres unmarked) [Compound 57, N-(4-(N-(2-(benzylamino)-1-(3-fluorophenyl)-2-oxoethyl)-2-(7-methyl-1H-indol-3-yl)acetamido)phenyl)isobutyramide] | ≤ 50% | 0.38 | 
CC(C)C(=O)Nc1ccc(N(C(=O)CCc2nc3ccccc3[nH]2)C(C(=O)NCc2ccccc2)c2cccc(F)c2)cc1 (centres unmarked) [Compound 58, 3-(1H-benzo[d]imidazol-2-yl)-N-(2-(benzylamino)-1-(3-fluorophenyl)-2-oxoethyl)-N-(4-isobutyramidophenyl)propanamide] |  | 0.40 | 
Cc1nccn1CCC(=O)N(c1ccc(NC(=O)C(C)C)cc1)C(C(=O)NCc1ccccc1)c1cccc(F)c1 (centres unmarked) [Compound 59, N-(2-(benzylamino)-1-(3-fluorophenyl)-2-oxoethyl)-N-(4-isobutyramidophenyl)-3-(2-methyl-1H-imidazol-1-yl)propanamide] |  | 0.44 | 
CC(C)(C)NC(=O)C(c1ccsc1)N(C(=O)C1CCN(C(=O)OC(C)(C)C)CC1)c1ccc(NC(=O)C2CC2)cc1 (centres unmarked) [Compound 60, tert-butyl 4-((2-(tert-butylamino)-2-oxo-1-(thiophen-3-yl)ethyl)(4-(cyclopropanecarboxamido)phenyl)carbamoyl)piperidine-1-carboxylate] | ≤ 50% | 0.60 | 
Cc1cccc2c(CC(=O)N(c3ccc(NC(=O)C4CC4)cc3)C(C(=O)NC(C)(C)C)c3ccsc3)c[nH]c12 (centres unmarked) [Compound 61, N-(4-(N-(2-(tert-butylamino)-2-oxo-1-(thiophen-3-yl)ethyl)-2-(7-methyl-1H-indol-3-yl)acetamido)phenyl)cyclopropanecarboxamide] | ≤ 50% | 0.43 | 
CC(C)(C)NC(=O)C(c1ccsc1)N(C(=O)CCc1nc2ccccc2[nH]1)c1ccc(NC(=O)C2CC2)cc1 (centres unmarked) [Compound 62, N-(4-(3-(1H-benzo[d]imidazol-2-yl)-N-(2-(tert-butylamino)-2-oxo-1-(thiophen-3-yl)ethyl)propanamido)phenyl)cyclopropanecarboxamide] | ≤ 50% | 0.46 | 
Cc1nccn1CCC(=O)N(c1ccc(NC(=O)C2CC2)cc1)C(C(=O)NC(C)(C)C)c1ccsc1 (centres unmarked) [Compound 63, N-(4-(N-(2-(tert-butylamino)-2-oxo-1-(thiophen-3-yl)ethyl)-3-(2-methyl-1H-imidazol-1-yl)propanamido)phenyl)cyclopropanecarboxamide] | ≤ 50% | 0.44 | 
COc1cc(N(C(=O)c2c[nH]cn2)C(C(=O)NC(C)(C)C)c2cccnc2)cc(OC)c1OC (centres unmarked) [Compound 69, N-(2-(tert-butylamino)-2-oxo-1-(pyridin-3-yl)ethyl)-N-(3,4,5-trimethoxyphenyl)-1H-imidazole-4-carboxamide] |  | 0.45 | 
Cc1cc(N(C(=O)c2c[nH]cn2)C(C(=O)NC(C)(C)C)c2cccnc2)ccc1Cl (centres unmarked) [Compound 70, N-(2-(tert-butylamino)-2-oxo-1-(pyridin-3-yl)ethyl)-N-(4-chloro-3-methylphenyl)-1H-imidazole-4-carboxamide] |  | 0.33 | 
CC(C)(C)NC(=O)C(c1cccnc1)N(C(=O)c1c[nH]cn1)c1cccc(C(C)(C)C)c1 (centres unmarked) [Compound 71] |  | 0.30 | 
